Assay results: US9873680B2 (Gilead Sciences, Inc., priority 2014, dated 2018)
Read-outs that look alike come from different tables or passages of the source.

Legend:
[1] = Test B: Cytotoxicity Assay; assay type: cell-based; settings: human, uninfected MT-4 cells, CellTiter-Glo
Experimental: Test B: Cytotoxicity Assay Compound cytotoxicity and the corresponding CC50 values was determined using the same protocol as described in the antiviral assay (Test A) except that uninfected cells were used.

[2] = system: HIV-IIIb; test: Test A: Antiviral Assay in MT4 Cells; assay type: cell-based, HIV-1; settings: read-out: % inhibition at 0.2 μM (percent inhibition of virus-induced cell killing)
In short: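 MT-4 cells were preinfected with HIV-IIIb […]. Cell viability, as protection from viral cytopathic effect, was read by CellTiter-Glo chemiluminescence.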

[3] = Human immunodeficiency virus 1, IIIB, MT4, 120 h
[4] = Human immunodeficiency virus 1, MT4, 120 h, 0.2 μM drug concentration, MT-4 cells infected with HIV-IIIb, 5 days, values normalized to 100%, average over time

Row | SMILES | CC50 at 5 days [1] [µM] | inhibition at 0.2 µM [2, 3] [%] | inhibition at 0.2 µM [2, 4] [%]
1 | CCN1CCO[C@](C)(C#Cc2ccc(-c3ccc(Cl)c4c(NS(C)(=O)=O)nn(C)c34)c([C@H](Cc3cc(F)cc(F)c3)NC(=O)Cn3nc(C(F)F)c4c3C(F)(F)[C@@H]3C[C@H]43)n2)C1 [Compound 85, N—((S)-1-(3-(4-chloro-1-methyl-3-(methylsulfonamido)-1H-indazol-7-yl)-6-(((R)-4-ethyl-2-methylmorpholin-2-yl)ethynyl)pyridin-2-yl)-2-(3,5-difluorophenyl)ethyl)-2-((3bS,4aR)-3-(difluoromethyl)-5,5-difluoro-3b,4,4a,5-tetrahydro-1-cyclopropa[3,4]cyclopenta[1,2-c]pyrazol-1-yl)acetamide] | 28.6 | 100 | –
2 | Cn1nc(N)c2cccc(-c3ccc(C#CC4(O)CCC4)nc3[C@H](Cc3cc(F)cc(F)c3)NC(=O)Cn3nc(C(F)(F)F)c4c3C(F)(F)[C@@H]3C[C@H]43)c21 [Compound 25, N—((S)-1-(3-(3-amino-1-methyl-1H-indazol-7-yl)-6-((1-hydroxy-cyclobutyl)ethynyl)pyridin-2-yl)-2-(3,5-difluorophenyl)ethyl)-2-((3bS,4aR)-5,5-difluoro-3-(trifluoromethyl)-3b,4,4a,5-tetrahydro-1H-cyclopropa[3,4]cyclopenta[1,2-c]pyrazol-1-yl)acetamide] | 9.92 | – | 91
3 | Cn1cnc(C#Cc2ccc(-c3ccc(Cl)c4c(NS(C)(=O)=O)nn(C)c34)c([C@H](Cc3cc(F)cc(F)c3)NC(=O)Cn3nc(C(F)(F)F)c4c3C(F)(F)[C@@H]3C[C@H]43)n2)c1 [Compound 67, N—((S)-1-(3-(4-chloro-1-methyl-3-(methylsulfonamido)-1H-indazol-7-yl)-6-((1-methyl-1H-imidazol-4-yl)ethynyl)pyridin-2-yl)-2-(3,5-difluorophenyl)ethyl)-2-((3bS,4aR)-5,5-difluoro-3-(trifluoromethyl)-3b,4,4a,5-tetrahydro-1H-cyclopropa[3,4]cyclopenta[1,2-c]pyrazol-1-yl)acetamide] | > 53.2 | – | 87
4 | Cn1nc(NS(C)(=O)=O)c2c(Cl)ccc(-c3ccc(C#CC4(O)CCOC4)nc3[C@H](Cc3cc(F)cc(F)c3)NC(=O)Cn3nc(C(F)(F)F)c4c3C(F)(F)[C@@H]3C[C@H]43)c21 (stereo partly drawn) [Compound 46, N-((1S)-1-(3-(4-chloro-1-methyl-3-(methylsulfonamido)-1H-indazol-7-yl)-6-((3-hydroxytetrahydrofuran-3-yl)ethynyl)pyridin-2-yl)-2-(3,5-difluorophenyl)ethyl)-2-((3bS,4aR)-5,5-difluoro-3-(trifluoromethyl)-3b,4,4a,5-tetrahydro-1H-cyclopropa[3,4]cyclopenta[1,2-c]pyrazol-1-yl)acetamide] | 17.6 | – | 96
5 | Cn1nc(NS(C)(=O)=O)c2cccc(-c3ccc(C#CC4(O)CCOCC4)nc3[C@H](Cc3cc(F)cc(F)c3)NC(=O)Cn3nc(C(F)(F)F)c4c3C(F)(F)[C@@H]3C[C@H]43)c21 [Compound 26, 2-((3bS,4aR)-5,5-difluoro-3-(trifluoromethyl)-3b,4,4a,5-tetrahydro-1H-cyclopropa[3,4]cyclopenta[1,2-c]pyrazol-1-yl)-N—((S)-2-(3,5-difluorophenyl)-1-(6-((4-hydroxytetrahydro-2H-pyran-4-yl)ethynyl)-3-(1-methyl-3-(methylsulfonamido)-1H-indazol-7-yl)pyridin-2-yl)ethyl)acetamide] | 15.9 | – | 94
6 | O=C(Cn1nc(C(F)F)c2c1C(F)(F)CCC2(F)F)N[C@@H](Cc1cc(F)cc(F)c1)c1nc(C#Cc2ccccc2)ncc1-c1ccc2c(c1)C(=O)NC2 [Compound 8, (S)-2-(3-(difluoromethyl)-4,4,7,7-tetrafluoro-4,5,6,7-tetrahydro-1H-indazol-1-yl)-N-(2-(3,5-difluorophenyl)-1-(5-(3-oxoisoindolin-5-yl)-2-(phenylethynyl)pyrimidin-4-yl)ethyl)acetamide] | > 53.2 | 102 | –
7 | Cn1nc(NS(C)(=O)=O)c2c(Cl)ccc(-c3ccc(C#CC4(O)CCCNC4)nc3[C@H](Cc3cc(F)cc(F)c3)NC(=O)Cn3nc(C(F)(F)F)c4c3C(F)(F)[C@@H]3C[C@H]43)c21 (stereo partly drawn) [Compound 75, N-((1S)-1-(3-(4-chloro-1-methyl-3-(methylsulfonamido)-1H-indazol-7-yl)-6-((3-hydroxypiperidin-3-yl)ethynyl)pyridin-2-yl)-2-(3,5-difluorophenyl)ethyl)-2-((3bS,4aR)-5,5-difluoro-3-(trifluoromethyl)-3b,4,4a,5-tetrahydro-1H-cyclopropa[3,4]cyclopenta[1,2-c]pyrazol-1-yl)acetamide] | 5.59 | – | 81
8 | Cn1nc(NS(C)(=O)=O)c2c(Cl)ccc(-c3ccc(C#C[C@@H]4COC(=O)N4)nc3[C@H](Cc3cc(F)cc(F)c3)NC(=O)Cn3nc(C(F)F)c4c3C(F)(F)[C@@H]3C[C@H]43)c21 [Compound 97C, N—((S)-1-(3-(4-chloro-1-methyl-3-(methylsulfonamido)-1H-indazol-7-yl)-6-(((R)-2-oxooxazolidin-4-yl)ethynyl)pyridin-2-yl)-2-(3,5-difluorophenyl)ethyl)-2-((3bS,4aR)-3-(difluoromethyl)-5,5-difluoro-3b,4,4a,5-tetrahydro-1H-cyclopropa[3,4]cyclopenta[1,2-c]pyrazol-1-yl)acetamide] | 15.2 | – | 89
9 | O=C(Cn1nc(C(F)F)c2c1C(F)(F)CCC2(F)F)N[C@@H](Cc1cc(F)cc(F)c1)c1nc(C#Cc2cncnc2)ccc1-c1ccc2c(c1)C(=O)NC21CC1 [Compound 6, (S)-2-(3-(difluoromethyl)-4,4,7,7-tetrafluoro-4,5,6,7-tetrahydro-1H-indazol-1-yl)-N-(2-(3,5-difluorophenyl)-1-(3-(3′-oxospiro[cyclopropane-1,1′-isoindolin]-5′-yl)-6-(pyrimidin-5-ylethynyl)pyridin-2-yl)ethyl)acetamide] | 1.66 | – | 0
10 | Cn1nc(NS(C)(=O)=O)c2c(Cl)ccc(-c3ccc(C#CC4(O)CC(F)(F)C4)nc3[C@H](Cc3cccc(F)c3)NC(=O)Cn3nc(C(F)F)c4c3C(F)(F)[C@@H]3C[C@H]43)c21 [Compound 101H, N—((S)-1-(3-(4-chloro-1-methyl-3-(methylsulfonamido)-1H-indazol-7-yl)-6-((3,3-difluoro-1-hydroxycyclobutyl)ethynyl)pyridin-2-yl)-2-(3-fluorophenyl)ethyl)-2-((3bS,4aR)-3-(difluoromethyl)-5,5-difluoro-3b,4,4a,5-tetrahydro-1H-cyclopropa[3,4]cyclopenta[1,2-c]pyrazol-1-yl)acetamide] | 9.1 | – | 91
11 | Cn1nc(NS(C)(=O)=O)c2c(Cl)ccc(-c3ccc(C#C[C@]4(C)CNCCO4)nc3[C@H](Cc3cc(F)cc(F)c3)NC(=O)Cn3nc(C(F)(F)F)c4c3C(F)(F)[C@@H]3C[C@H]43)c21 [Compound 83G, N—((S)-1-(3-(4-chloro-1-methyl-3-(methylsulfonamido)-1H-indazol-7-yl)-6-(((R)-2-methylmorpholin-2-yl)ethynyl)pyridin-2-yl)-2-(3,5-difluorophenyl)ethyl)-2-((3bS,4aR)-5,5-difluoro-3-(trifluoromethyl)-3b,4,4a,5-tetrahydro-1H-cyclopropa[3,4]cyclopenta[1,2-c]pyrazol-1-yl)acetamide] | 6.57 | – | 90
12 | Cn1nc(NS(C)(=O)=O)c2cccc(-c3ccc(C#CC4(O)CCC4)nc3[C@H](Cc3cc(F)cc(F)c3)NC(=O)Cn3nc(C(F)(F)F)c4c3C(F)(F)[C@@H]3C[C@H]43)c21 [Compound 24D, 2-((3bS,4aR)-5,5-difluoro-3-(trifluoromethyl)-3b,4,4a,5-tetrahydro-1H-cyclopropa[3,4]cyclopenta[1,2-c]pyrazol-1-yl)-N—((S)-2-(3,5-difluorophenyl)-1-(6-((1-hydroxycyclobutyl)ethynyl)-3-(1-methyl-3-(methylsulfonamido)-1H-indazol-7-yl)pyridin-2-yl)ethyl)acetamide] | 15.8 | – | 100
13 | O=C(Cn1nc(C(F)F)c2c1C(F)(F)CCC2(F)F)N[C@@H](Cc1cc(F)cc(F)c1)c1nc(C#Cc2cncnc2)ncc1-c1ccc2c(c1)C(=O)NC2 [Compound 7H] | 0.534 | 94 | –
14 | Cc1cc2ncn(CC(=O)N[C@@H](Cc3cc(F)cc(F)c3)c3nc(C#CC4(O)CCOCC4)ccc3-c3ccc4n[nH]c(=O)n4c3C)c2cc1C [Compound 3D, (S)—N-(2-(3,5-difluorophenyl)-1-(6-((4-hydroxytetrahydro-2H-pyran-4-yl)ethynyl)-3-(5-methyl-3-oxo-2,3-dihydro-[1,2,4]triazolo[4,3-a]pyridin-6-yl)pyridin-2-yl)ethyl)-2-(5,6-dimethyl-1H-benzo[d]imidazol-1-yl)acetamide] | 31.6 | – | 91
15 | Cn1nc(NS(C)(=O)=O)c2c(Cl)ccc(-c3ccc(C#CC4(O)COC(C)(C)OC4)nc3[C@H](Cc3cc(F)cc(F)c3)NC(=O)Cn3nc(C(F)(F)F)c4c3C(F)(F)[C@@H]3C[C@H]43)c21 [Compound 74, N—((S)-1-(3-(4-chloro-1-methyl-3-(methylsulfonamido)-1H-indazol-7-yl)-6-((5-hydroxy-2,2-dimethyl-1,3-dioxan-5-yl)ethynyl)pyridin-2-yl)-2-(3,5-difluorophenyl)ethyl)-2-((3bS,4aR)-5,5-difluoro-3-(trifluoromethyl)-3b,4,4a,5-tetrahydro-1H-cyclopropa[3,4]cyclopenta[1,2-c]pyrazol-1-yl)acetamide] | 8.62 | – | 77
